Experimental data: PubChem BioAssay AID2060893 (Molecular Pharmacology Branch, DTP, NCI, 2025)
Each block holds one compound with its values, some of them ahead of it.

Test system: K86415-001-R-J1-PDC complex spheroids, viability
Assay: Anticancer human tumor K86415-001-R-J1-PDC patient-derived lung adenocarcinoma cell line growth inhibition [RAS]
Settings: for IC50: curve of first compound; for viability, T/C: stronger effect = lower value
Summary of the method: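 Multi-cell-type spheroids: tumor cells plus HUVEC endothelial cells and mesenchymal stem cells. RAS-pathway inhibitors were combined with targeted agents, each dosed in half-log steps down from clinical Cmax, or from 10 microM when Cmax was unknown.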

[1] = second compound 0.0316 µM, first compound 0.00316 µM
[2] = second compound 0.0316 µM, first compound 0.01 µM
[3] = second compound 0.0316 µM, first compound 0.0316 µM
[4] = second compound 0.0316 µM, first compound 0.1 µM
[5] = second compound 0.1 µM, first compound 0.00316 µM
[6] = second compound 0.1 µM, first compound 0.01 µM
[7] = second compound 0.1 µM, first compound 0.0316 µM
[8] = second compound 0.1 µM, first compound 0.1 µM
[9] = second compound 0.316 µM, first compound 0.00316 µM
[10] = second compound 0.316 µM, first compound 0.01 µM
[11] = second compound 0.316 µM, first compound 0.0316 µM
[12] = second compound 0.316 µM, first compound 0.1 µM
[13] = second compound 1 µM, first compound 0.00316 µM
[14] = second compound 1 µM, first compound 0.01 µM
[15] = second compound 1 µM, first compound 0.0316 µM
[16] = second compound 1 µM, first compound 0.1 µM
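Also: spheroids exposed to agents for seven days before readout.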

IC50 (second compound 0.00316 µM): < 0.316 nM | IC50 (second compound 0.01 µM): < 0.316 nM | IC50 (second compound 0.0316 µM): < 0.316 nM | IC50 (second compound 0.1 µM): < 0.316 nM | IC50 (second compound 0.316 µM): < 0.316 nM | IC50 (second compound 1 µM): < 0.316 nM
Compound: CC(C)n1nc(-c2ccc3oc(N)nc3c2)c2c(N)ncnc21 + C=CC(=O)N1CCN(c2nc(OCC3CCCN3C)nc3c(F)c(-c4nc(N)cc(C)c4C(F)(F)F)c(Cl)cc23)C(C)C1
viability, T/C (second compound 0.00316 µM, first compound 0.000316 µM): 18.4% | viability, T/C (second compound 0.00316 µM, first compound 0.001 µM): 17.5% | viability, T/C (second compound 0.00316 µM, first compound 0.00316 µM): 16.8% | viability, T/C (second compound 0.00316 µM, first compound 0.01 µM): 19.4% | viability, T/C (second compound 0.00316 µM, first compound 0.0316 µM): 31.8% | viability, T/C (second compound 0.00316 µM, first compound 0.1 µM): 12.5% | viability, T/C (second compound 0.01 µM, first compound 0.000316 µM): 11.8% | viability, T/C (second compound 0.01 µM, first compound 0.001 µM): 11.1% | viability, T/C (second compound 0.01 µM, first compound 0.00316 µM): 11.4% | viability, T/C (second compound 0.01 µM, first compound 0.01 µM): 9% | viability, T/C (second compound 0.01 µM, first compound 0.0316 µM): 18.9% | viability, T/C (second compound 0.01 µM, first compound 0.1 µM): 6% | viability, T/C (second compound 0.0316 µM, first compound 0.000316 µM): 10.9% | viability, T/C (second compound 0.0316 µM, first compound 0.001 µM): 9.65% | viability, T/C [1]: 8.36% | viability, T/C [2]: 8% | viability, T/C [3]: 8.61% | viability, T/C [4]: 4.33% | viability, T/C (second compound 0.1 µM, first compound 0.000316 µM): 10.5% | viability, T/C (second compound 0.1 µM, first compound 0.001 µM): 7.96% | viability, T/C [5]: 7.44% | viability, T/C [6]: 7.78% | viability, T/C [7]: 5.11% | viability, T/C [8]: 3.67% | viability, T/C (second compound 0.316 µM, first compound 0.000316 µM): 10.1% | viability, T/C (second compound 0.316 µM, first compound 0.001 µM): 8.76% | viability, T/C [9]: 9.08% | viability, T/C [10]: 8.68% | viability, T/C [11]: 6.52% | viability, T/C [12]: 3.86% | viability, T/C (second compound 1 µM, first compound 0.000316 µM): 8.74% | viability, T/C (second compound 1 µM, first compound 0.001 µM): 8.53% | viability, T/C [13]: 8.04% | viability, T/C [14]: 8.63% | viability, T/C [15]: 6.85% | viability, T/C [16]: 2.72%

IC50 (second compound 0.000949 µM): < 0.316 nM | IC50 (second compound 0.003 µM): < 0.316 nM | IC50 (second compound 0.00949 µM): < 0.316 nM | IC50 (second compound 0.03 µM): < 0.316 nM | IC50 (second compound 0.0949 µM): < 0.316 nM | IC50 (second compound 0.3 µM): < 0.316 nM
Compound: CC(C)n1nc(-c2ccc3oc(N)nc3c2)c2c(N)ncnc21 + CCn1c(-c2cccnc2C(C)OC)c2c3cc(ccc31)N1CCOC(CC(NC(=O)C(C(C)C)N(C)C(=O)C3(F)CCN(C(=O)C#CC(C)(C)N(C)C)CC3)C(=O)N3CCCC(N3)C(=O)OCC(C)(C)C2)C1
viability, T/C (second compound 0.000949 µM, first compound 0.000316 µM): 34% | viability, T/C (second compound 0.000949 µM, first compound 0.001 µM): 35.4% | viability, T/C (second compound 0.000949 µM, first compound 0.00316 µM): 23.2% | viability, T/C (second compound 0.000949 µM, first compound 0.01 µM): 41.4% | viability, T/C (second compound 0.000949 µM, first compound 0.0316 µM): 24.4% | viability, T/C (second compound 0.000949 µM, first compound 0.1 µM): 5.51% | viability, T/C (second compound 0.003 µM, first compound 0.000316 µM): 13% | viability, T/C (second compound 0.003 µM, first compound 0.001 µM): 12.1% | viability, T/C (second compound 0.003 µM, first compound 0.00316 µM): 10.7% | viability, T/C (second compound 0.003 µM, first compound 0.01 µM): 14.7% | viability, T/C (second compound 0.003 µM, first compound 0.0316 µM): 8.1% | viability, T/C (second compound 0.003 µM, first compound 0.1 µM): 3.6% | viability, T/C (second compound 0.00949 µM, first compound 0.000316 µM): 13.2% | viability, T/C (second compound 0.00949 µM, first compound 0.001 µM): 9.19% | viability, T/C (second compound 0.00949 µM, first compound 0.00316 µM): 10.9% | viability, T/C (second compound 0.00949 µM, first compound 0.01 µM): 13.8% | viability, T/C (second compound 0.00949 µM, first compound 0.0316 µM): 7.68% | viability, T/C (second compound 0.00949 µM, first compound 0.1 µM): 2.81% | viability, T/C (second compound 0.03 µM, first compound 0.000316 µM): 12.8% | viability, T/C (second compound 0.03 µM, first compound 0.001 µM): 10.7% | viability, T/C (second compound 0.03 µM, first compound 0.00316 µM): 11.1% | viability, T/C (second compound 0.03 µM, first compound 0.01 µM): 12.4% | viability, T/C (second compound 0.03 µM, first compound 0.0316 µM): 5.85% | viability, T/C (second compound 0.03 µM, first compound 0.1 µM): 3.42% | viability, T/C (second compound 0.0949 µM, first compound 0.000316 µM): 10.1% | viability, T/C (second compound 0.0949 µM, first compound 0.001 µM): 11% | viability, T/C (second compound 0.0949 µM, first compound 0.00316 µM): 10.1% | viability, T/C (second compound 0.0949 µM, first compound 0.01 µM): 12.7% | viability, T/C (second compound 0.0949 µM, first compound 0.0316 µM): 4.18% | viability, T/C (second compound 0.0949 µM, first compound 0.1 µM): 2.27% | viability, T/C (second compound 0.3 µM, first compound 0.000316 µM): 14.4% | viability, T/C (second compound 0.3 µM, first compound 0.001 µM): 11.3% | viability, T/C (second compound 0.3 µM, first compound 0.00316 µM): 12.1% | viability, T/C (second compound 0.3 µM, first compound 0.01 µM): 7.79% | viability, T/C (second compound 0.3 µM, first compound 0.0316 µM): 4.23% | viability, T/C (second compound 0.3 µM, first compound 0.1 µM): 2.06%

IC50 (second compound 0.0316 µM): 64.2 nM | IC50 (second compound 0.1 µM): 56 nM | IC50 (second compound 0.316 µM): 38.2 nM | IC50 (second compound 1 µM): 12.5 nM | IC50 (second compound 3.16 µM): < 3.16 nM | IC50 (second compound 10 µM): < 3.16 nM
Compound: O=C(c1ccc(F)c(F)c1Nc1ccc(I)cc1F)N1CC(O)([C@@H]2CCCCN2)C1 + C#Cc1c(F)ccc2cc(O)cc(-c3ncc4c(N5CC6CCC(C5)N6)nc(OCC56CCCN5CC(F)C6)nc4c3F)c12
viability, T/C [1]: 89% | viability, T/C [2]: 83.5% | viability, T/C [3]: 67.7% | viability, T/C [4]: 38% | viability, T/C (second compound 0.0316 µM, first compound 0.316 µM): 19.8% | viability, T/C (second compound 0.0316 µM, first compound 1 µM): 8.49% | viability, T/C [5]: 88.1% | viability, T/C [6]: 79.9% | viability, T/C [7]: 61.3% | viability, T/C [8]: 37% | viability, T/C (second compound 0.1 µM, first compound 0.316 µM): 22.2% | viability, T/C (second compound 0.1 µM, first compound 1 µM): 8.46% | viability, T/C [9]: 74.5% | viability, T/C [10]: 74.5% | viability, T/C [11]: 52.2% | viability, T/C [12]: 29.2% | viability, T/C (second compound 0.316 µM, first compound 0.316 µM): 17.2% | viability, T/C (second compound 0.316 µM, first compound 1 µM): 8.24% | viability, T/C [13]: 61.2% | viability, T/C [14]: 54.9% | viability, T/C [15]: 35.9% | viability, T/C [16]: 22% | viability, T/C (second compound 1 µM, first compound 0.316 µM): 12.4% | viability, T/C (second compound 1 µM, first compound 1 µM): 5.88% | viability, T/C (second compound 3.16 µM, first compound 0.00316 µM): 28.6% | viability, T/C (second compound 3.16 µM, first compound 0.01 µM): 32% | viability, T/C (second compound 3.16 µM, first compound 0.0316 µM): 20.6% | viability, T/C (second compound 3.16 µM, first compound 0.1 µM): 13.8% | viability, T/C (second compound 3.16 µM, first compound 0.316 µM): 8.69% | viability, T/C (second compound 3.16 µM, first compound 1 µM): 3.9% | viability, T/C (second compound 10 µM, first compound 0.00316 µM): 14.4% | viability, T/C (second compound 10 µM, first compound 0.01 µM): 13.1% | viability, T/C (second compound 10 µM, first compound 0.0316 µM): 9.68% | viability, T/C (second compound 10 µM, first compound 0.1 µM): 7.57% | viability, T/C (second compound 10 µM, first compound 0.316 µM): 4.87% | viability, T/C (second compound 10 µM, first compound 1 µM): 3%
